From US7754683B2, “Bioactive peptide of bone morphogenetic protein-2” (priority 2005, dated 2010)
Square brackets hold non-standard residues; d marks the D form. Ends that are not written are not given here. pS = N[C@@H](COP(=O)(O)O)C(=O)O

Tested on: Wistar rats
Assay: Experimental research on animal ectopic osteogenesis (peptide/collagen sponge implantation)
Format: in vivo
Conditions: for ectopic osteogenesis by CT scan imaging: 0.4 mg peptide on collagen sponge implanted in sacral spine muscles, CT at 3, 6, 8 weeks; for ectopic osteogenesis ability (overall result) / formation of new bone by histological examination (HE staining): 0.4 mg peptide/collagen sponge; for formation of new bone by histological examination (HE staining): eighth week
Description: The scaffold material is collagen sponge, the size of which is 5×5×5 mm^3. Three bone morphogenetic protein-2 active peptides are dissolved into saline solution, and then dropped on the collagen sponge in accordance with the 0.4 mg dose. Meanwhile, equivalent saline solution is dropped on the control pure collagen sponge, and freeze-dried for reserve after complete absorption.
(2) groups: 36 Wistar rats are randomly divided into three experimental groups, namely 0.4 mg bone morphogenetic protein-2 active peptide 1/collagen sponge group, 0.4 mg bone morphogenetic protein-2 active peptide 2/[…] group and 0.4 mg bone morphogenetic protein-2 active peptide 3/collagen sponge group, and the control group is using pure collagen sponge.
The anesthesia of rats is achieved by ketamine intraperitoneal injection. For two experimental groups, 0.4 mg bone morphogenetic protein-2 active peptide 1/collagen sponge and 0.4 mg bone morphogenetic protein-2 active peptide 2/collagen sponge are respectively implanted with 1 cm incision in the sacral spine muscles on the back. For […], pure collagen sponge of the same size is implanted into the gaps along one side of sacral spine muscles. CT radiography inspection of three rats groups is done after implantation in the 3, 6, 8 weeks, and then four rats of each group are killed at each time point. Local tissues of implant materials are sampled, after fixation by formaldehyde and paraffin-embedded sections, and histological observation is done with HE staining.

Substance | ectopic osteogenesis by CT scan imaging | ectopic osteogenesis ability (overall result) | formation of new bone by histological examination (HE staining)
C16H31O—NH—CCCCGGGS^[PO4]KIPKASSVPTELSAISTLYL | significant ectopic osteogenesis | good ectopic osteogenesis ability | significant formation of new bone
CCCCDDDS^[PO4]KIPKASSVPTELSAISTLYL (CCCCDDD[pS]KIPKASSVPTELSAISTLYL; cysteine pairing not given here) | significant ectopic osteogenesis | good ectopic osteogenesis ability | significant formation of new bone
S^[PO4]KIPKASSVPTELSAISTLYLDDD ([pS]KIPKASSVPTELSAISTLYLDDD) | significant ectopic osteogenesis | good ectopic osteogenesis ability | significant formation of new bone
